Assay results reported in publication PMC10425210 (The Journal of Clinical Investigation, 2023).

Test: Plasma pharmacokinetics after a single subcutaneous administration of LEN
Assay type: in vivo, rhesus macaques
Details: for concentration at 8 week: week 8 post dose; for concentration at 9 week: week 9 post dose; for concentration at 10 week: week 10 post dose; for concentration at 11 week: week 11 post dose; for concentration at 12 week: week 12 post dose; for concentration at 14 week: week 14 post dose
Method: All animals were housed at Bioqual Inc. For the in vivo SHIV stock titration study, 8 untreated outbred Indian-origin male rhesus macaques aged 3–5 years were challenged intrarectally per round for a total of 5 challenge rounds using increasing virus doses ranging from 0.625 to 100 TCID50, with the 100 TCID50 round performed twice for increased resolution (Supplemental Table 2). Plasma viral load was measured to confirm the infection status. […] Injection sites were monitored daily by veterinary staff for 2 weeks and then weekly through the end of study. On week 7, 11 animals were challenged by the intrarectal route with 1 mL RPMI containing 100 TCID50 SHIV-SF162P3. Whole blood was collected and processed into plasma and PBMCs as necessary for the assessment of routine hematology and clinical chemistry, viral load analysis, serology, and the bioanalysis of drug levels. Animals were considered protected if they remained SHIV negative by a plasma PCR assay and seronegative by enzyme immunoassay through week 10 after challenge.
Rhesus plasma samples were stored frozen at –80°C and thawed, and a 50 μL aliquot of each was treated with 200 μL acetonitrile containing an internal standard. After precipitation of the protein component, a 100 μL aliquot of the supernatant was transferred to a clean 96-well plate and mixed with 200 μL water. A 10 μL aliquot of the above solution was then injected into a Q-Exactive high resolution mass spectrometer from Thermo Electron with electrospray ionization in positive mode.

[1] = male, Indian-origin (outbred), rhesus monkey, plasma, subcutaneous, 5 mg/kg, Plasma LEN (Mean), 5 mg/kg sc
[2] = male, Indian-origin (outbred), rhesus monkey, plasma, subcutaneous, 10 mg/kg, Plasma LEN (Mean), 10 mg/kg sc
[3] = male, Indian-origin (outbred), rhesus monkey, plasma, subcutaneous, 20 mg/kg, Plasma LEN (Mean), 20 mg/kg sc

With `CC(C)(C#Cc1ccc(-c2ccc(Cl)c3c(NS(C)(=O)=O)nn(CC(F)(F)F)c23)c([C@H](Cc2cc(F)cc(F)c2)NC(=O)Cn2nc(C(F)(F)F)c3c2C(F)(F)[C@@H]2C[C@H]32)n1)S(C)(=O)=O` [LEN, Lenacapavir] the “dose proportionality of exposure” value (5 to 20 mg/kg sc) was “dose-proportional increase”, the “dose proportionality of exposure” value (50 to 75 mg/kg sc) was “more than dose-proportional increase” and the “Plasma LEN” value (animal BM55, 20 mg/kg, week 0 post challenge) was 38.60 nM. For the same molecule, the “Plasma LEN” value (animal BM55, 20 mg/kg, week 6 post challenge) was 10.80 nM, the “Plasma LEN” value (animal BM55, 20 mg/kg, week 7 post challenge) was 7.10 nM and the “Plasma LEN” value (animal BM55, 20 mg/kg, week 8 post challenge) was 5.30 nM. For the same molecule, the “Plasma LEN” value (animal BM55, 20 mg/kg, week 9 post challenge) was 3.80 nM, the “Plasma LEN” value (animal BM55, 20 mg/kg, week 10 post challenge) was 4.10 nM and the “Plasma LEN” value (animal BN33, 20 mg/kg, week 0 post challenge) was 18.60 nM. For the same molecule, the “Plasma LEN” value (animal BN33, 20 mg/kg, week 6 post challenge) was 9.10 nM, the “Plasma LEN” value (animal BN33, 20 mg/kg, week 7 post challenge) was 5.71 nM and the “Plasma LEN” value (animal BN33, 20 mg/kg, week 8 post challenge) was 6.90 nM. For the same molecule, the “Plasma LEN” value (animal BN33, 20 mg/kg, week 9 post challenge) was 4.70 nM, the “Plasma LEN” value (animal BN33, 20 mg/kg, week 10 post challenge) was 4.50 nM and the “Plasma LEN” value (animal CO92, 50 mg/kg, week 0 post challenge) was 50.08 nM. The “Plasma LEN” value (animal CO92, 50 mg/kg, week 1 post challenge) was 62.65 nM, the “Plasma LEN” value (animal CO92, 50 mg/kg, week 2 post challenge) was 47.76 nM and the “Plasma LEN” value (animal CO92, 50 mg/kg, week 3 post challenge) was 52.01 nM. For the same molecule, the “Plasma LEN” value (animal CO92, 50 mg/kg, week 4 post challenge) was 67.23 nM, the “Plasma LEN” value (animal CO92, 50 mg/kg, week 5 post challenge) was 66.62 nM and the “Plasma LEN” value (animal CO92, 50 mg/kg, week 6 post challenge) was 66.12 nM. For the same molecule, the “Plasma LEN” value (animal CO92, 50 mg/kg, week 7 post challenge) was 36.27 nM, the “Plasma LEN” value (animal CO92, 50 mg/kg, week 8 post challenge) was 42.04 nM and the “Plasma LEN” value (animal CO92, 50 mg/kg, week 9 post challenge) was 52.87 nM. For the same molecule, the “Plasma LEN” value (animal CO92, 50 mg/kg, week 10 post challenge) was 56.39 nM, the “Plasma LEN” value (animal CO92, 50 mg/kg, week 11 post challenge) was 43.33 nM and the “Plasma LEN” value (animal CO92, 50 mg/kg, week 12 post challenge) was 27.05 nM. The “Plasma LEN” value (animal CO92, 50 mg/kg, week 13 post challenge) was 18.50 nM, the “Plasma LEN” value (animal CO92, 50 mg/kg, week 14 post challenge) was 13.10 nM and the “Plasma LEN” value (animal CO92, 50 mg/kg, week 15 post challenge) was 18.82 nM. For the same molecule, the “Plasma LEN” value (animal CO92, 50 mg/kg, week 16 post challenge) was 13.67 nM, the “Plasma LEN” value (animal CP67, 75 mg/kg, week 8 post challenge) was 37.09 nM and the “Plasma LEN” value (animal CP67, 75 mg/kg, week 9 post challenge) was 36.45 nM. The “Plasma LEN” value (animal CP67, 75 mg/kg, week 10 post challenge) was 23.67 nM, the “Plasma LEN” value (animal CP67, 75 mg/kg, week 11 post challenge) was 20.33 nM and the “Plasma LEN” value (animal V229, 20 mg/kg, week 0 post challenge) was 37.30 nM. The “Plasma LEN” value (animal V229, 20 mg/kg, week 6 post challenge) was 15.10 nM, the “Plasma LEN” value (animal V229, 20 mg/kg, week 7 post challenge) was 8.33 nM and the “Plasma LEN” value (animal V229, 20 mg/kg, week 8 post challenge) was 6.00 nM. The “Plasma LEN” value (animal V229, 20 mg/kg, week 9 post challenge) was 3.70 nM, the “Plasma LEN” value (animal V229, 20 mg/kg, week 10 post challenge) was 4.60 nM and the “Plasma LEN” value (animal V411, 50 mg/kg, week 0 post challenge) was 143.42 nM. For the same molecule, the “Plasma LEN” value (animal V411, 50 mg/kg, week 1 post challenge) was 64.99 nM, the “Plasma LEN” value (animal V411, 50 mg/kg, week 2 post challenge) was 55.43 nM and the “Plasma LEN” value (animal V411, 50 mg/kg, week 3 post challenge) was 47.46 nM. The “Plasma LEN” value (animal V411, 50 mg/kg, week 4 post challenge) was 28.61 nM, the “Plasma LEN” value (animal V411, 50 mg/kg, week 5 post challenge) was 19.46 nM and the “Plasma LEN” value (animal V411, 50 mg/kg, week 6 post challenge) was 17.89 nM. The “Plasma LEN” value (animal V411, 50 mg/kg, week 7 post challenge) was 11.22 nM, the “Plasma LEN” value (animal V411, 50 mg/kg, week 8 post challenge) was 7.46 nM and the “Plasma LEN” value (animal V411, 50 mg/kg, week 9 post challenge) was 7.40 nM. The “Plasma LEN” value (animal V411, 50 mg/kg, week 10 post challenge) was 5.89 nM, the “Plasma LEN” value (animal V411, 50 mg/kg, week 11 post challenge) was 3.67 nM and the “Plasma LEN” value (animal V411, 50 mg/kg, week 12 post challenge) was 2.40 nM. For the same molecule, the “Plasma LEN” value (animal V411, 50 mg/kg, week 13 post challenge) was 3.03 nM, the “Plasma LEN” value (animal V411, 50 mg/kg, week 14 post challenge) was 2.52 nM and the “Plasma LEN” value (animal V411, 50 mg/kg, week 15 post challenge) was 2.21 nM. The “Plasma LEN” value (animal V411, 50 mg/kg, week 16 post challenge) was 1.79 nM, the “Plasma LEN” value (animal V417, 75 mg/kg, week 8 post challenge) was 23.00 nM and the “Plasma LEN” value (animal V417, 75 mg/kg, week 9 post challenge) was 32.44 nM. For the same molecule, the “Plasma LEN” value (animal V417, 75 mg/kg, week 10 post challenge) was 33.77 nM, the “Plasma LEN” value (animal V426, 75 mg/kg, week 8 post challenge) was 36.31 nM and the “Plasma LEN” value (animal V426, 75 mg/kg, week 9 post challenge) was 52.45 nM. The “Plasma LEN” value (animal V426, 75 mg/kg, week 10 post challenge) was 38.56 nM, the “Plasma LEN” value (animal V426, 75 mg/kg, week 11 post challenge) was 38.65 nM and the “Plasma LEN” value (animal V430, 50 mg/kg, week 0 post challenge) was 117.17 nM. For the same molecule, the “Plasma LEN” value (animal V430, 50 mg/kg, week 1 post challenge) was 47.07 nM, the “Plasma LEN” value (animal V430, 50 mg/kg, week 2 post challenge) was 55.06 nM and the “Plasma LEN” value (animal V430, 50 mg/kg, week 3 post challenge) was 44.89 nM. For the same molecule, the “Plasma LEN” value (animal V430, 50 mg/kg, week 4 post challenge) was 40.12 nM, the “Plasma LEN” value (animal V430, 50 mg/kg, week 5 post challenge) was 30.18 nM and the “Plasma LEN” value (animal V430, 50 mg/kg, week 6 post challenge) was 23.37 nM. For the same molecule, the “Plasma LEN” value (animal V430, 50 mg/kg, week 7 post challenge) was 9.85 nM, the “Plasma LEN” value (animal V430, 50 mg/kg, week 8 post challenge) was 6.90 nM and the “Plasma LEN” value (animal V430, 50 mg/kg, week 9 post challenge) was 7.41 nM. The “Plasma LEN” value (animal V430, 50 mg/kg, week 10 post challenge) was 7.29 nM, the “Plasma LEN” value (animal V430, 50 mg/kg, week 11 post challenge) was 3.38 nM and the “Plasma LEN” value (animal V430, 50 mg/kg, week 12 post challenge) was 2.44 nM. For the same molecule, the “Plasma LEN” value (animal V430, 50 mg/kg, week 13 post challenge) was 1.41 nM, the “Plasma LEN” value (animal V430, 50 mg/kg, week 14 post challenge) was 1.81 nM and the “Plasma LEN” value (animal V430, 50 mg/kg, week 15 post challenge) was 1.32 nM. The “Plasma LEN” value (animal V435, 75 mg/kg, week 7 post challenge) was 3.85 nM, the “Plasma LEN” value (animal V435, 75 mg/kg, week 8 post challenge) was 2.05 nM and the “Plasma LEN” value (animal V435, 75 mg/kg, week 9 post challenge) was 2.10 nM. The “Plasma LEN” value (animal V435, 75 mg/kg, week 10 post challenge) was 1.92 nM, the “Plasma LEN” value (animal V470, 50 mg/kg, week 0 post challenge) was 100.49 nM and the “Plasma LEN” value (animal V470, 50 mg/kg, week 1 post challenge) was 40.04 nM. The “Plasma LEN” value (animal V470, 50 mg/kg, week 2 post challenge) was 48.42 nM, the “Plasma LEN” value (animal V470, 50 mg/kg, week 3 post challenge) was 50.54 nM and the “Plasma LEN” value (animal V470, 50 mg/kg, week 4 post challenge) was 46.19 nM. For the same molecule, the “Plasma LEN” value (animal V470, 50 mg/kg, week 5 post challenge) was 35.17 nM, the “Plasma LEN” value (animal V470, 50 mg/kg, week 6 post challenge) was 44.02 nM and the “Plasma LEN” value (animal V470, 50 mg/kg, week 7 post challenge) was 26.59 nM. For the same molecule, the “Plasma LEN” value (animal V470, 50 mg/kg, week 8 post challenge) was 17.23 nM, the “Plasma LEN” value (animal V470, 50 mg/kg, week 9 post challenge) was 20.99 nM and the “Plasma LEN” value (animal V470, 50 mg/kg, week 10 post challenge) was 19.02 nM. The “Plasma LEN” value (animal V470, 50 mg/kg, week 11 post challenge) was 17.74 nM, the “Plasma LEN” value (animal V470, 50 mg/kg, week 12 post challenge) was 12.55 nM and the “Plasma LEN” value (animal V470, 50 mg/kg, week 13 post challenge) was 11.15 nM. For the same molecule, the “Plasma LEN” value (animal V470, 50 mg/kg, week 14 post challenge) was 8.52 nM, the “Plasma LEN” value (animal V470, 50 mg/kg, week 15 post challenge) was 6.58 nM and the “Plasma LEN” value (animal V470, 50 mg/kg, week 16 post challenge) was 6.37 nM. For the same molecule, the “duration of plasma exposures above the paEC95 (8.8 nM)” value (eleven animals of the 3 highest dosing groups) was “over 10 weeks”, the concentration at 8 week [1] was 4.42 nM and the concentration at 9 week [1] was 5.79 nM. For the same molecule, the concentration at 10 week [1] was 3.41 nM, the concentration at 11 week [1] was 4.16 nM and the concentration at 12 week [1] was 1.87 nM. For the same molecule, the concentration at 14 week [1] was 1.45 nM, the concentration at 8 week [2] was 9.6 nM and the concentration at 9 week [2] was 10.1 nM. It also gave a concentration at 10 week [2] of 8.41 nM, a concentration at 11 week [2] of 5.96 nM and a concentration at 12 week [2] of 5.13 nM. The concentration at 14 week [2] was 3.63 nM, the concentration at 8 week [3] was 26.1 nM and the concentration at 9 week [3] was 28 nM. The concentration at 10 week [3] was 27.9 nM, the concentration at 11 week [3] was 15 nM and the concentration at 12 week [3] was 9.8 nM. For the same molecule, the concentration at 13 week (male, Indian-origin (outbred), rhesus monkey, plasma, subcutaneous, 20 mg/kg, Plasma LEN (Mean), 20 mg/kg sc, week 13 post dose) was 11.7 nM, the concentration at 14 week [3] was 7.07 nM and the concentration at 15 week (male, Indian-origin (outbred), rhesus monkey, plasma, subcutaneous, 20 mg/kg, Plasma LEN (Mean), 20 mg/kg sc, week 15 post dose) was 6.07 nM. The concentration at 16 week (male, Indian-origin (outbred), rhesus monkey, plasma, subcutaneous, 20 mg/kg, Plasma LEN (Mean), 20 mg/kg sc, week 16 post dose) was 4.07 nM, the concentration at 17 week (male, Indian-origin (outbred), rhesus monkey, plasma, subcutaneous, 20 mg/kg, Plasma LEN (Mean), 20 mg/kg sc, week 17 post dose) was 4.4 nM and the concentration at 8 week (male, Indian-origin (outbred), rhesus monkey, plasma, subcutaneous, 50 mg/kg, Plasma LEN (Mean), 50 mg/kg sc) was 53.7 nM.
